Measurements taken from patent publication US5460806A, “Bis(2-mercaptoethyl) sulfone” (President and Fellows of Harvard College, priority 1993, dated 1995).
“Also recorded” adds a separate entry of the source.

Experiments:
[1] = cited from earlier work; for reducing strength: reduction of a disulfide bond
[2] = stability of aqueous solution of the dithiol; assay type: physicochemical; conditions: over several days, protected from atmospheric oxygen
[3] = pKa of the dithiol; assay type: physicochemical
Description: (§1) The following is taken from Lamoureux and Whitesides, 58 J. Org. Chem. 633, 1993, hereby incorporated by reference herein. The general methodology and equations used for analysis are presented there, and are not repeated here.

[4] = thiol/disulfide equilibrium (reduction strength) relative to oxidized mercaptoethanol
Description: In addition to a fast rate of reduction, a useful dithiol should be strongly reducing in order to reduce disulfides quantitatively and to maintain thiols in the reduced state without the inconvenience of mixed disulfides. […] We have used this equilibrium to evaluate several dithiols in terms of their reduction strength.
as §1

signs of decomposition of aqueous solution [2]	pKa [3]	SMILES	rate of reduction (in words), pH=7 ([1]; pH=7, background statement)	reducing strength ([1]; background statement)	rate of reduction (in words) ([1]; background statement, pH not given)	equilibrium constant relative to oxidized mercaptoethanol [4]
		O[C@H](CS)[C@H](O)CS (racemic) [DTT, Dithiothreitol]	kinetically slow	strong reductant; also recorded: one of the most strongly reducing dithiols		
		OCCS [Mercaptoethanol]		weak	slow	
no signs of decomposition	~7.9	O=S(=O)(CCS)CCS [bis(2-mercaptoethyl) sulfone, Bis(2-mercaptoethyl) sulfone]				about 63
